Laboratory results reported in patent publication US9448226B2, “Method of toxicological evaluation, method of toxicological screening and associated system” (Universite Technologie De Compiegne—UTC, priority 2010, dated 2016).

Legend:
HEPG2/C3A cells = assay: Metabolic response of C3A bioartificial liver in bioreactor to xenobiotic (1H NMR, PLS regression); type: cell-based, human; parameters: key: +: sign of the variation of its concentration (in brackets) when the amount of xenobiotic in the experiment increases; −: sign of the variation of its concentration (in brackets) when the amount of xenobiotic in the experiment increases
Description: (§1) In the preferred embodiment described, ^1H NMR spectroscopy (proton NMR, which makes it possible to detect hydrogen atoms) was used to carry out a series of tests. These tests involved two cell lines and three potentially toxic substances, with the two lines being optionally in coculture. These cells are in one case HEPG2/C3A cells, or simply C3A, human hepatocyte cells, and in the other case Madin-Darby canine kidney (MDCK) cells. […] In particular, mention may be made of the pancreas, the heart, the testicles, parts of the brain, etc.
(§2) The medium samples are, for example, prepared using 350 μl of medium, mixed with 200 μl of 0.9 g/l saline solution composed of 90% water (H2O) and 10% heavy water (D2O), for the purpose of calibration. The 550 μl of solution is then transferred to an NMR analysis tube.
(§3) NMR is acquired at a frequency of 700 MHz by using a proton probe. A ^1D NMR spectrum is recorded using presaturation of the resonance of the water according to the following sequence: Trd-P90-t1-P90-tm-P90-Taq. Trd represents a delay of 2 seconds during which the resonance of the water is selectively irradiated, P90 is a 90° pulse of radio frequency and t1 corresponds to a delay of 3 μs. The resonance of the water is irradiated a second time during the mixing time (tm=100 ms) and an acquisition time of 1.95 s. For each sample, 128 interferograms are accumulated in order to increase the signal-to-noise ratio. These interferograms are multiplied by an exponential function corresponding to a 0.3 Hz enlarging of the line. Before obtaining a Fourier transform, the width of the interferogram is doubled by adding null points at the end of the interferogram, in order not to degrade the resolution of the spectrum. The scale in the horizontal dimension corresponds to the ^1H chemical shifts. It extends over a window of 10 ppm around the resonance of water. The scale in the vertical dimension corresponds to resonance intensity which is proportional to the number of protons present for a chemical group of each molecule of the sample. The spectra are then phased and a linear correction of the baseline is carried out, before calibration on the signal of the […] anomer of glucose at 5.23 ppm. The area between 4.67 ppm and 5 ppm around the residual signal of water is suppressed for better visibility, and the spectra are exported as a multidimensional data set.
(§4) The statistical analysis consists first of an unsupervised principal components analysis in order to locate aberrant points in the multidimensional data set. The principal components analysis makes it possible to compress the 40,000 redundant NMR present in the data set in a new orthonormal reference, with each axis representing a principal component of the variance of the data set, which is thus multidimensional. A so-called supervised multivariate statistical analysis is then carried out in order to discriminate culture conditions or groups of doses and to identify the metabolic signatures specific to the toxicological effects. This supervised analysis is principally carried out using partial least squares regression, through partial least squares discriminant analysis (PLS-DA), without however being limited to it. A PLS regression, just like a linear regression, makes it possible to identify the components of the data set (explanatory variables, X) that are quantitatively correlated with the non-explanatory variable (Y), whether the culture conditions, the cell type of the bioartificial organ, the type of treatment administered or the treatment dose. Artificial neural network structures can also be programmed to carry out this multivariate analysis.
(§5) Third, the metabolic responses of the various organs to various exposures to NH3 were studied. Three amounts of NH3 were administered (0 mM, 5 mM and 10 mM) to each type of bioartificial organ.

C3A cells = assay: Metabolic response of C3A cell culture in Petri dishes to APAP (1H NMR, PLS regression); type: cell-based, human; parameters: key: +: sign of the variation of its concentration (in brackets) when the amount of xenobiotic in the experiment increases; −: sign of the variation of its concentration (in brackets) when the amount of xenobiotic in the experiment increases; settings: amount of xenobiotic increases
Method: Fourth, the specific metabolic responses of bioartificial livers exposed to various toxins were characterized (Table 4). Several toxic substances (NH3 ([…]); DMSO (0%, 1%, 2%, 4%); APAP (0.1 mM)) were administered to bioartificial livers comprised of C3A cells. In the case of treatment with APAP, the response of the bioartificial liver was compared with that of liver cells in culture in Petri dishes. […] The result is four PLS models specific to each treatment type: NH3 on C3A bioartificial liver, DMSO on C3A bioartificial liver, APAP on C3A bioartificial liver and, finally, APAP on C3A cell culture in Petri dishes. […] This table presents for each metabolite the sign of the variation of its concentration (in brackets) when the amount of xenobiotic in the experiment increases.

C3A/MDCK coculture = settings: NH3 0 mM, 5 mM and 10 mM
Description: as §1, §2, §3, §4, §5

[1] = system: Madin-Darby canine kidney (MDCK) cells; settings: Bioartificial kidney (MDCK cells); NH3 0 mM, 5 mM and 10 mM
Description: as §1, §2, §3, §4, §5

[2] = C3A bioartificial liver, amount of xenobiotic increases (Table 4)
[3] = Bioartificial liver (C3A cells), NH3 0 mM, 5 mM and 10 mM

## CC(=O)Nc1ccc(O)cc1 [APAP, N-acetyl-para-aminophenol]
HEPG2/C3A cells; [2]
  Variation of Acetate concentration: Acetate (+)
  Variation of Isoleucine concentration: Isoleucine (−)
  Variation of Pyruvate/oxaloacetate concentration: oxaloacetate (−)
  Variation of Succinate concentration: Succinate (−)
  Variation of Tyrosine concentration: Tyrosine (+)
  Variation of Unknown metabolite concentration: Unknown (−)
C3A cells
  Variation of Arginine concentration: Arginine (−)
  Variation of Ethanol concentration: Ethanol (−)
  Variation of Glutamate concentration: Glutamate (−)
  Variation of Isoleucine concentration: Isoleucine (−)
  Variation of Leucine concentration: Leucine (−)
  Variation of Lysine concentration: Lysine (−)
  Variation of Phenylalanine concentration: Phenylalanine (−)

## C[S+](C)[O-] [DMSO, dimethyl sulfoxide]
HEPG2/C3A cells; [2]
  Variation of Alpha-keto-isovalerate concentration: isovalerate (−)
  Variation of Alpha-keto-methylvalerate concentration: methylvalerate (−)
  Variation of Glucose concentration: Glucose (+)
  Variation of Lactate concentration: Lactate (−)
  Variation of Phenylalanine concentration: Phenylalanine (+)
  Variation of Tyrosine concentration: Tyrosine (+)

## N [NH3, ammonia]
HEPG2/C3A cells; [3]
  Variation of Alanine concentration: +
  Variation of Alpha-keto-isovalerate concentration: −
  Variation of Alpha-keto-methylvalerate concentration: −
  Variation of Isoleucine concentration: +
  Variation of Leucine concentration: +
  Variation of Succinate concentration: +
  Variation of Valine concentration: +
HEPG2/C3A cells; [2]
  Variation of Alanine concentration: Alanine (+)
  Variation of Alpha-keto-isovalerate concentration: isovalerate (−)
  Variation of Alpha-keto-methylvalerate concentration: methylvalerate (−)
  Variation of Isoleucine concentration: Isoleucine (+)
  Variation of Leucine concentration: Leucine (+)
  Variation of Succinate concentration: Succinate (+)
  Variation of Valine concentration: Valine (+)
C3A/MDCK coculture
  Variation of Alpha-hydroxyisobutyrate concentration: +
  Variation of Glutamate concentration: +
  Variation of Glutamine concentration: +
  Variation of Lysine concentration: +
  Variation of Ornithine concentration: −
  Variation of Succinate concentration: +
  Variation of Valine concentration: +
[1]
  Variation of Glutamine concentration: −
  Variation of Lysine concentration: −
  Variation of Oxaloacetate concentration: −
  Variation of Pyroglutamate concentration: +
  Variation of Pyruvate concentration: −
  Variation of Unknown metabolite concentration: −
